Laboratory results taken from publication PMC6892751, “Novel Angiotensin-Converting Enzyme-Inhibitory Peptides From Fermented Bovine Milk Started by Lactobacillus helveticus KLDS.31 and Lactobacillus casei KLDS.105: Purification, Identification, and Interaction Mechanisms” (Frontiers in Microbiology, 2019).
Like-named read-outs stand apart in the source and are kept apart here. Where no end group is shown, it is not given here.

Legend:
ACE = details: read-out: IC50 of ACE inhibition, cited from earlier work
Description: ACE-inhibitory peptides from bovine milk protein have been described previously ([De Leo et al., 2009]). These bioactive peptides are typically produced by enzymatic hydrolysis, microbial fermentation, or genetic engineering. In particular, more attention has been focused on microbial fermentation as the food grade bacteria, such as lactic acid bacteria (LAB), provide enriched food bioactive substances ([Castellano et al., 2013]). Furthermore, the hydrolytic processing of milk protein through the action of chymosin and Lactobacillus casei can also improve cheese flavor ([Lemieux et al., 2010]) ...

[1] = target: T1, angiotensin I-converting enzyme (ACE) (Oryctolagus cuniculus, UniProt P12822); assay: ACE-inhibitory activity determination by HPLC (hippuric acid from Hip-His-Leu); type: biochemical; details: HPLC of hippuric acid, Hip-His-Leu 5 mM, sodium borate buffer 50 mM pH 8.1, ACE 0.1 U/mL, 37°C 60 min, mean ± SD, triplicate, read-out: IC50 of ACE inhibition
T1 sequence (P12822 34-1310): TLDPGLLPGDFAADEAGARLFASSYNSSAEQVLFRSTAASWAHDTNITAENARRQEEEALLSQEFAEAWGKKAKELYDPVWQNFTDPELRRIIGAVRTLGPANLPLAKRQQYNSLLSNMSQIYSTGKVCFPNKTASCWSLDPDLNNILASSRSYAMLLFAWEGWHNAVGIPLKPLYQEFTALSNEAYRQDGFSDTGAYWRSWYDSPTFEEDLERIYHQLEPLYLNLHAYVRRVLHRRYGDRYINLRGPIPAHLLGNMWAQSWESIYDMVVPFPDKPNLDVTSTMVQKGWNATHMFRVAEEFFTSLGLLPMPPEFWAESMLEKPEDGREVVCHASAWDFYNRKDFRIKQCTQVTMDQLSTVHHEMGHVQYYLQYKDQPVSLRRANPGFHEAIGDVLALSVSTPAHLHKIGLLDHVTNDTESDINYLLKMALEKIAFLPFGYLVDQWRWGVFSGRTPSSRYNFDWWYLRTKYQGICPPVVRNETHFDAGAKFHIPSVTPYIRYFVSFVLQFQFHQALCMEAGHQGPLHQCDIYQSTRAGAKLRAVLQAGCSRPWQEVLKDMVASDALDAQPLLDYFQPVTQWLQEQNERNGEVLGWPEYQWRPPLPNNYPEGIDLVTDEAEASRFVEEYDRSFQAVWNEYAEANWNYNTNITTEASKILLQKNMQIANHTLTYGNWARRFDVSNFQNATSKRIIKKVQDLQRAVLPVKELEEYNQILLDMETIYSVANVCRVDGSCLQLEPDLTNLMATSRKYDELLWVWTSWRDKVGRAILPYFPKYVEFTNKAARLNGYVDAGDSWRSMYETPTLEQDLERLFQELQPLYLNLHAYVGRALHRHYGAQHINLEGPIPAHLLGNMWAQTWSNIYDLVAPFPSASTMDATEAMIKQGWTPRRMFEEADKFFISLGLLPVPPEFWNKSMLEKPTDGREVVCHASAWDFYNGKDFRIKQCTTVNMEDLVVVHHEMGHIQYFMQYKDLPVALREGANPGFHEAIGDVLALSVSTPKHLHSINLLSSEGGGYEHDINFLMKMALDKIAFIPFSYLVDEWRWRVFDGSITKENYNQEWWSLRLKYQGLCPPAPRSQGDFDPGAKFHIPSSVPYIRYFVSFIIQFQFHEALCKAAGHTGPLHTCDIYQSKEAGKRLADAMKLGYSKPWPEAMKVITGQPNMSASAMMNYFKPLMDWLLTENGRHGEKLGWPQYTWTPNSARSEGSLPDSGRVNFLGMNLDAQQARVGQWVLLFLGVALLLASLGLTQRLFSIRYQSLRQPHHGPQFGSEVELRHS
Procedure: The determination was measured by HPLC, with slight changes according to the procedure described by [Gonzalez-Gonzalez et al. (2011)]. The sample (20 μL) was dissolved in 120 μL Hip-His-Leu (5 mM) with sodium borate buffer (50 mM, pH 8.1). After incubation at 37°C for 3 min, the ACE solution (0.1 U/mL, 10 μL) was added to the sample and incubated for 60 min at the above temperature. Subsequently, 0.15 mL HCl (1 M) was used to terminate the reaction. The content of hippuric acid (HA) produced by reaction was determined by reverse-phase high-performance liquid chromatography (RP-HPLC, Waters Corporation, United States). A symmetry C18 Column (3.9 × 150 mm, 5 μm, Waters, United States) was used with the Waters HPLC model Alliance 2690 system, which included an ultraviolet detector (Waters, United States). […] Flow rate was 0.8 mL/min. The sample (6 μL) was filtered (0.45 μm filter) and measured at 228 nm. A standard curve was generated using concentrations of standard HA and peak areas. The ACE-inhibitory activity was determined as:
ACEinhibitoryactivity(%)=[HA]control-[HA]sample/[HA]control×100%
The concentration of inhibitor that inhibits 50% ACE activity is defined as IC50 value.

[2] = peptides from low-fat milk fermented with several LAB, ref Chen et al. (2007)

Substance	IC50 [1] [µM]	also measured
Gly-Thr-Trp	–	IC50 (ACE; [2]): 464 µM
Gly-Val-Trp	–	IC50 (ACE; [2]): 240 µM
LDHVPGGAR [Leu-Asp-His-Val-Pro-Gly-Gly-Ala-Arg]	201 ± 5.24	–
RLSFDP [literature peptide from β-lactoglobulin hydrolysate (f148-153), sour milk fermented with Lb. helveticus LB10]	–	IC50 (ACE; from sour milk fermented with Lb. helveticus LB10, β-lactoglobulin hydrolysate (f148-153), ref Pan and Guo (2010)): 177 µM

More lines, main results first:

IC50 [1] [µM]	Substance	also measured
110 ± 3.87	KAALSGM [Lys-Ala-Ala-Leu-Ser-Gly-Met]	–
189 ± 4.61	KKAAMAM [Lys-Lys-Ala-Ala-Met-Ala-Met]	–
77.5 ± 2.74	KPAGDF [Lys-Pro-Ala-Gly-Asp-Phe]	–
